Earlier results in US20090004173A1, “Diagnosis and Treatment of Drug Resistant Leukemia” (priority 2004, published 2009).
Like-named read-outs stand apart in the source and are kept apart here.

B1: L-asparaginase (protein, UniProt P00805 23-348, looked up)
L-asparaginase 2: LPNITILATGGTIAGGGDSATKSNYTVGKVGVENLVNAVPQLKDIANVKGEQVVNIGSQDMNDNVWLTLAKKINTDCDKTDGFVITHGTDTMEETAYFLDLTVKCDKPVVMVGAMRPSTSMSADGPFNLYNAVVTAADKASANRGVLVVMNDTVLDGRDVTKTNTTDVATFKSVNYGPLGYIHNGKIDYQRTPARKHTSDTPFDVSKLNELPKVGIVYNYANASDLPAKALVDAGYDGIVSAGVGNGNLYKSVFDTLATAAKTGTAVVRSSRVPTGATTQDAEVDDAKYGFVASGTLNPQKARVLLQLALTQTKDPQQIQQIFNQY

Key:
leukemia cells = conditions: for LC50 values for classification of ALL: Resistant / LC50 values for classification of ALL: Sensitive: LC50 by MTT, cut-off previously associated with treatment outcome
non-leukemic cell lines = conditions: Niitsu et al. (2000)
[1] = classification cut-off: cell is resistant if LC-50 is equal to or greater than the value

Molecule	LC50 values for classification of ALL: Resistant (leukemia cells)	LC50 values for classification of ALL: Sensitive (leukemia cells)	LC-50 values for classifying leukemia cells as drug-resistant (leukemia cells; [1])	sensitization to the cytotoxicity of daunorubicin and doxorubicin (non-leukemic cell lines)	LC-50 values for classifying leukemia cells as drug-resistant (leukemia cells)
C[C@]12C=CC(=O)C=C1CC[C@@H]1[C@@H]2[C@@H](O)C[C@@]2(C)[C@H]1CC[C@]2(O)C(=O)CO [Prednisolone, prednisolone]	≧150 μg/ml	≦0.100 μg/ml	≧150 μg/ml		
COc1cccc2c1C(=O)c1c(O)c3c(c(O)c1C2=O)C[C@@](O)(C(C)=O)C[C@@H]3O[C@H]1C[C@H](N)[C@H](O)[C@H](C)O1 [Daunorubicin, daunorubicin]	≧0.114 μg/ml	≦0.075 μg/ml	≧0.114 μg/ml		
CCCC(=O)OCOC(=O)C(C)(C)C [AN-9]				sensitize non-leukemic cell lines to the cytotoxicity of daunorubicin and doxorubicin	
CC[C@]1(O)C[C@H]2CN(CCc3c([nH]c4ccccc34)[C@@](C(=O)OC)(c3cc4c(cc3OC)N(C=O)[C@H]3[C@@](O)(C(=O)OC)[C@H](OC(C)=O)[C@]5(CC)C=CCN6CC[C@]43[C@@H]65)C2)C1 [Vincristine, vincristine]	≧1.758 μg/ml	≦0.391 μg/ml	≧1.758 μg/ml		
B1	≧0.912 IU/ml	≦0.033 IU/ml			≧0.912 IU/ml
